This note sets out measurements from PubChem BioAssay (NCI).

Among the test systems are COLO 205 colon; MDA-MB-435; UO-31 renal; OVCAR-3 ovarian; KM12 colon; HCT-15 colon.
Test in all cases: NCI tumour cell line growth inhibition, 48 h

Where “and” joins values, the source holds several entries; their conditions need not be identical. Equal entries are not always repeated.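 Method: 48-hour compound exposure of cells in 96-well plates, five concentrations, linear interpolation of endpoints. Here, GI50 denotes the concentration required for 50% inhibition of growth. TGI marks complete inhibition of growth.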 Some results are limits rather than exact numbers.

For `CCCCCCc1cc2cc(-c3csc(/C=C/c4ccccc4)n3)c(=O)oc2cc1O`, the GI50 was greater than 100 µM in the assay on COLO 205 colon; 12.9 µM with MDA-MB-435; 15.7 µM in the assay on UO-31 renal; 3.52 µM with OVCAR-3 ovarian; 4.42 µM in the assay on KM12 colon; 5.53 µM with HCT-15 colon. Also, the TGI in the assay with COLO 205 colon is greater than 100 µM; with MDA-MB-435, 27.2 µM; with UO-31 renal it was greater than 100 µM; with OVCAR-3 ovarian, 9.98 µM; in the assay on KM12 colon, 16.4 µM; in the assay with HCT-15 colon it was greater than 100 µM.
`COc1ccc(/C=C/C(=O)c2ccc(Nc3nc(Nc4ccc(F)cc4)nc(Nc4ccc(Cl)cc4)n3)cc2)cc1`: the GI50 in the assay on COLO 205 colon is 24.2 µM; in the assay with MDA-MB-435, greater than 100 µM; in the assay with UO-31 renal, 56.9 µM; with OVCAR-3 ovarian, greater than 100 µM; in the assay with KM12 colon it was greater than 100 µM; in the assay on HCT-15 colon, 30.8 µM. Moreover, the TGI in the assay on COLO 205 colon, in the assay with MDA-MB-435, with UO-31 renal, in the assay on OVCAR-3 ovarian, in the assay on KM12 colon and in the assay with HCT-15 colon was greater than 100 µM throughout.
As for `CCOc1cc(/C=C/C(=O)C(C(=O)/C=C/c2ccc(OC(=O)CNc3nnc(C)s3)c(OCC)c2)C(=O)CNc2nnc(C)s2)ccc1OC(=O)CNc1nnc(C)s1`, the GI50 in the assay on COLO 205 colon was 1.7 µM; in the assay on MDA-MB-435, 1.53 µM; in the assay on UO-31 renal, 1.41 µM; with OVCAR-3 ovarian, 1.24 µM; in the assay on KM12 colon, 1.3 µM; in the assay on HCT-15 colon it was 2.16 µM. For the same compound, the TGI in the assay with COLO 205 colon stood at 3.54 µM; with MDA-MB-435, 8.7 µM; with UO-31 renal it was 7.81 µM; in the assay with OVCAR-3 ovarian it was 4.85 µM; in the assay with KM12 colon, 2.94 µM; in the assay with HCT-15 colon, 5.85 µM.
Regarding `O=C(/C=C/c1nnc2n(Cc3ccccc3)c(=O)c3c4c(sc3n12)CCCC4)c1ccccc1`, the GI50 is 3.54 µM in the assay with MDA-MB-435; 3.06 µM with UO-31 renal; 4.1 µM in the assay on KM12 colon; 2.04 µM and 0.389 µM with HCT-15 colon. In the assay with HCT-15 colon, this compound came in with a TGI greater than 100 µM.
Turning to `FC(F)(F)c1ccc(-c2ncc(-c3ccc(C(F)(F)F)cc3)c(NCc3cc(C(F)(F)F)cc(C(F)(F)F)c3)n2)cc1`, the GI50 in the assay on COLO 205 colon was 2.34 µM; with MDA-MB-435, 4.23 µM; in the assay on UO-31 renal it was 2.94 µM; in the assay with OVCAR-3 ovarian it was 3.39 µM; in the assay on KM12 colon, 4.3 µM; in the assay with HCT-15 colon, 3.74 µM. Moreover, the TGI with COLO 205 colon is 6.09 µM; in the assay on MDA-MB-435 it was greater than 100 µM; in the assay with UO-31 renal it was 36.6 µM; with OVCAR-3 ovarian, 16 µM; with KM12 colon, 63.2 µM; with HCT-15 colon, greater than 100 µM.
`COc1cc(/C=C/C(=O)c2c(C)nc3ccccc3c2C)ccc1OCCCCOc1cc2c(cc1OC)C(=O)N1CCC[C@H]1C=N2`: the GI50 in the assay on COLO 205 colon is 0.74 µM; with MDA-MB-435, 0.274 µM; in the assay on UO-31 renal it was 0.252 µM; in the assay with OVCAR-3 ovarian it was 0.217 µM; in the assay on KM12 colon, 0.308 µM; in the assay on HCT-15 colon it was 1.71 µM. The TGI with COLO 205 colon stood at 2.14 µM; in the assay on MDA-MB-435 it was 0.873 µM; in the assay with UO-31 renal it was 1.08 µM; in the assay with OVCAR-3 ovarian, 0.631 µM; in the assay with KM12 colon, 0.839 µM; in the assay with HCT-15 colon it was 5.18 µM.
With `FC(F)(F)c1cc(-c2ncn(/C=C\c3nnco3)n2)cc(C(F)(F)F)c1`, the GI50 is 0.055 µM with COLO 205 colon; 0.0581 µM with MDA-MB-435; 0.151 µM in the assay with UO-31 renal; 0.06 µM in the assay with OVCAR-3 ovarian; 0.346 µM in the assay on KM12 colon; 0.133 µM in the assay with HCT-15 colon. The TGI with COLO 205 colon is 14 µM; with MDA-MB-435, 1.51 µM; with UO-31 renal, greater than 100 µM; with OVCAR-3 ovarian, 1.42 µM; in the assay with KM12 colon, greater than 32.7 µM; with HCT-15 colon, greater than 33.4 µM.
For the compound `Cc1ccc(NC(=O)c2nc(S(C)(=O)=O)oc2-c2ccc(F)cc2)cc1Nc1ccc2ncn(C)c(=O)c2c1`, the values for the GI50 with MDA-MB-435, in the assay with UO-31 renal and in the assay with KM12 colon were 2.48 µM, 1.93 µM and 3.12 µM, respectively. In addition, the TGI in the assay on MDA-MB-435 came out at 7.28 µM; in the assay on UO-31 renal, 3.4 µM; in the assay with KM12 colon it was 11.1 µM.
Regarding `O=C(O)CNCCc1ccccc1`, the TGI in the assay with COLO 205 colon, in the assay on MDA-MB-435, with UO-31 renal, with OVCAR-3 ovarian, in the assay with KM12 colon and in the assay on HCT-15 colon was greater than 100 µM each time.
With `N#Cc1c2ccccc2c2nnc3ccc(C(F)(F)F)cc3n12`, the GI50 in the assay on COLO 205 colon was 39.4 µM; with MDA-MB-435, 32.5 µM; with UO-31 renal, 85.6 µM; in the assay with OVCAR-3 ovarian, 38.2 µM; with KM12 colon it was 61.2 µM; in the assay with HCT-15 colon, 40.6 µM. Moreover, the TGI in the assay on COLO 205 colon, in the assay on MDA-MB-435, in the assay with UO-31 renal, in the assay on OVCAR-3 ovarian, in the assay with KM12 colon and in the assay on HCT-15 colon was greater than 100 µM each time.
Take `N#Cc1c2ccccc2c2nnc3ccccc3n12`: the GI50 with COLO 205 colon is 9.32 µM; in the assay on MDA-MB-435, 33.5 µM; in the assay on UO-31 renal, 20 µM; in the assay with OVCAR-3 ovarian, 59.7 µM; in the assay on KM12 colon, 48.7 µM; in the assay with HCT-15 colon, 21.5 µM. In addition, the TGI in the assay with COLO 205 colon, in the assay with MDA-MB-435, in the assay with UO-31 renal, in the assay with OVCAR-3 ovarian, in the assay on KM12 colon and in the assay on HCT-15 colon was greater than 100 µM in each case.
Regarding `Cn1c(NCC(CN2CCCC2)OC(=O)c2ccccc2)cc(=O)n(C)c1=O` (stereo not drawn), the GI50 in the assay on COLO 205 colon, in the assay on MDA-MB-435, with UO-31 renal, in the assay with OVCAR-3 ovarian and with HCT-15 colon was greater than 100 µM throughout. Besides, the TGI in the assay with COLO 205 colon, in the assay on MDA-MB-435, in the assay on UO-31 renal, with OVCAR-3 ovarian and with HCT-15 colon was greater than 100 µM throughout.
For `C/C(=N/NC(=S)N1CC2CCC(CC2)C1)c1cnccn1`, the TGI amounted to 10.9 µM with COLO 205 colon; 16.4 µM with MDA-MB-435; 2.02 µM in the assay with UO-31 renal; 21 µM with KM12 colon; 16 µM in the assay with HCT-15 colon.
For `CCC(C)(C)[C@H](NC(=O)[C@H]1CCCCN1C)C(=O)N(C)[C@H](C[C@@H](OC(C)=O)c1nc(C(=O)N[C@@H](Cc2ccccc2)C[C@H](C)C(=O)O)cs1)C(C)C`, the GI50 in the assay on COLO 205 colon is less than 0.00167 µM; in the assay with UO-31 renal, 0.00873 µM; in the assay with OVCAR-3 ovarian, less than 0.00167 µM; in the assay on KM12 colon, less than 0.00167 µM; in the assay on HCT-15 colon, less than 0.00167 µM. Moreover, the TGI in the assay on COLO 205 colon is 0.00277 µM; in the assay on UO-31 renal, greater than 16.7 µM; with OVCAR-3 ovarian, 0.00472 µM; in the assay on KM12 colon, greater than 16.7 µM; in the assay on HCT-15 colon it was greater than 16.7 µM.
